# Measured values from ChEMBL document CHEMBL1201862, “PubChem BioAssay data set” (2004).
#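 Interpolation was linear, between the two tested concentrations surrounding the appropriate level; five concentrations were tested over 48 hours in 96-well plates. GI50: concentration for 50% inhibition of growth.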 The source made the active and inactive calls. No stated cut-off is given here; in the data, active = GI50 up to about 1.1 µM and inactive = higher.
# Key:
# Assay in all cases: growth of human tumour cells (NCI), 48 h
# M19-MEL = tested on: M19-MEL
# SNB-78 = tested on: SNB-78
# RXF 631 = tested on: RXF 631
# LXFL 529 = tested on: LXFL 529
# DMS-114 = tested on: DMS-114
# DLD-1 = tested on: DLD-1
# DMS-273 = tested on: DMS-273
# HOP-18 = tested on: HOP-18
# XF498 = tested on: XF498
Structure (SMILES),GI50 (M19-MEL),GI50 (SNB-78),GI50 (RXF 631),GI50 (LXFL 529),GI50 (DMS-114),GI50 (DLD-1),GI50 (DMS-273),GI50 (HOP-18),GI50 (XF498)
N=c1nc(N)c2cc3c(N)nc(=N)c3cc12,1.87 µM (inactive),9.35 µM (inactive),14.5 µM (inactive),38.1 µM (inactive),5.74 µM (inactive),> 73.5 µM (inactive),30.7 µM (inactive),8.97 µM (inactive),–
O=C(/C=C/c1ccccc1O)c1cccc2ccccc12,> 100 µM (inactive),> 100 µM (inactive),> 100 µM (inactive),36.2 µM (inactive),21.4 µM (inactive),37.3 µM (inactive),54.5 µM (inactive),28.1 µM (inactive),25.8 µM (inactive)
O=C(O)c1ccc(C2COc3ccc(Cl)cc3C2)cc1 (configuration not stated),> 100 µM (inactive),> 100 µM (inactive),–,> 100 µM (inactive),> 100 µM (inactive),> 100 µM (inactive),> 100 µM (inactive),> 100 µM (inactive),> 100 µM (inactive)
CCC(=O)N1C(=S)SC[C@H]1C(=O)OC,> 100 µM (inactive),> 100 µM (inactive),–,> 100 µM (inactive),> 100 µM (inactive),> 100 µM (inactive),> 100 µM (inactive),> 100 µM (inactive),7.4 µM (inactive)
C=C1C(=O)O[C@@H]2[C@H]1CCC(C)=C1C=CC(=O)[C@]12C,–,4.61 µM (inactive),11.3 µM (inactive),13.8 µM (inactive),14.3 µM (inactive),14.9 µM (inactive),17.3 µM (inactive),15.9 µM (inactive),–
CCOP1(=O)C=C(C)C(Cl)=C(C)C1 (configuration not stated),21.1 µM (inactive),–,2.75 µM (inactive),17.3 µM (inactive),17.5 µM (inactive),25.9 µM (inactive),13.6 µM (inactive),68.7 µM (inactive),26.8 µM (inactive)
CC1=C(C(=O)Nc2ccccc2C)C(c2ccc(C3C(C(=O)Nc4ccccc4C)=CNC=C3C(=O)Nc3ccccc3C)cc2)C(C(=O)Nc2ccccc2C)=C(C)N1,23.8 µM (inactive),30.2 µM (inactive),–,10.9 µM (inactive),23.3 µM (inactive),13.6 µM (inactive),20.7 µM (inactive),37 µM (inactive),22.8 µM (inactive)
CC(=O)O[C@H]1CSC[C@@H](OC(C)=O)C1[N+](=O)[O-] (some centres not stated),47.3 µM (inactive),33.4 µM (inactive),> 100 µM (inactive),18 µM (inactive),39.1 µM (inactive),–,> 100 µM (inactive),50.7 µM (inactive),–
COc1cc2cc(OC(C)=O)c3cc4c(cc3c2c(OC)c1OC)OCO4,> 100 µM (inactive),> 100 µM (inactive),> 100 µM (inactive),> 100 µM (inactive),> 100 µM (inactive),> 100 µM (inactive),> 100 µM (inactive),> 100 µM (inactive),> 100 µM (inactive)
COC(=O)C1C(=O)CC2CCCCC21 (configuration not stated),> 100 µM (inactive),> 100 µM (inactive),–,> 100 µM (inactive),> 100 µM (inactive),> 100 µM (inactive),> 100 µM (inactive),–,–
O=C1c2cccc3c(Cl)ccc(c23)C(=O)N1CCCN1CCN(CCCN2C(=O)c3cccc4c(Cl)ccc(c34)C2=O)CC1,–,90.8 µM (inactive),76.7 µM (inactive),> 100 µM (inactive),> 100 µM (inactive),50.5 µM (inactive),> 100 µM (inactive),> 100 µM (inactive),> 100 µM (inactive)
O=C1C=CC(CC(=O)c2ccc3ccccc3c2)O1 (configuration not stated),43.5 µM (inactive),34.9 µM (inactive),–,18.4 µM (inactive),–,28.7 µM (inactive),20 µM (inactive),35 µM (inactive),66.5 µM (inactive)
Cc1ccccc1NC(=O)C1C(=O)N(c2ccccc2C)C(=O)/C1=N\N (configuration not stated),> 100 µM (inactive),> 100 µM (inactive),> 100 µM (inactive),> 100 µM (inactive),> 100 µM (inactive),> 100 µM (inactive),–,> 100 µM (inactive),–
Cc1ccc(SCC(=O)C2=C(O)CCCC2=O)cc1,> 100 µM (inactive),> 100 µM (inactive),> 100 µM (inactive),> 100 µM (inactive),> 100 µM (inactive),> 100 µM (inactive),> 100 µM (inactive),> 100 µM (inactive),> 100 µM (inactive)
COc1cc(/C=C/C(=O)Oc2ccccc2)ccc1C(=O)O/C=C/c1ccccc1,> 100 µM (inactive),> 100 µM (inactive),–,–,> 100 µM (inactive),> 100 µM (inactive),> 100 µM (inactive),> 100 µM (inactive),> 100 µM (inactive)
CN1CCC(=O)/C(=C/c2ccccc2)C1,5.45 µM (inactive),19.6 µM (inactive),16.7 µM (inactive),6.32 µM (inactive),9.68 µM (inactive),6.24 µM (inactive),6.55 µM (inactive),18.2 µM (inactive),18.7 µM (inactive)
CN(C)CCNC(=O)c1cccc2ncc(-c3ccccc3)nc12,14.2 µM (inactive),8.89 µM (inactive),9.59 µM (inactive),6.81 µM (inactive),12.8 µM (inactive),5.45 µM (inactive),5.09 µM (inactive),5.85 µM (inactive),–
COc1ccc(C(N)=O)cc1/N=N/N(C)C,> 100 µM (inactive),–,–,> 100 µM (inactive),–,> 100 µM (inactive),> 100 µM (inactive),> 100 µM (inactive),–
CC1(C=O)C(=O)CCC2(C)C3CC(=O)OC3CCC12 (configuration not stated),> 100 µM (inactive),–,–,> 100 µM (inactive),> 100 µM (inactive),> 100 µM (inactive),> 100 µM (inactive),> 100 µM (inactive),–
COC(=O)c1cc2c(nc1C)-c1ccccc1OS2(=O)=O,> 100 µM (inactive),82.8 µM (inactive),> 100 µM (inactive),> 100 µM (inactive),> 100 µM (inactive),> 100 µM (inactive),> 100 µM (inactive),–,56.6 µM (inactive)
Clc1ccccc1CN1COc2c(ccc3cccnc23)C1,4.14 µM (inactive),3.37 µM (inactive),–,–,2.67 µM (inactive),4.66 µM (inactive),3.42 µM (inactive),–,9.68 µM (inactive)
Nc1nc2[nH]cnc2c(=S)[nH]1 [THIOGUANINE],9.82 µM (inactive),2.23 µM (inactive),0.527 µM (active),8.45 µM (inactive),0.849 µM (active),0.962 µM (active),0.445 µM (active),5.64 µM (inactive),1.09 µM (active)
O=C(CCn1[nH]c(=O)c(Cl)c(Cl)c1=O)NOCCCc1ccccc1,> 100 µM (inactive),> 100 µM (inactive),> 100 µM (inactive),> 100 µM (inactive),–,> 100 µM (inactive),> 100 µM (inactive),> 100 µM (inactive),> 100 µM (inactive)
CCCCCCCCCCCCCCCC(=O)OCCOCCOCCOCc1ccccc1,> 100 µM (inactive),> 100 µM (inactive),–,–,–,> 100 µM (inactive),> 100 µM (inactive),50.8 µM (inactive),> 100 µM (inactive)
Nc1nncs1,1090 µM (inactive),3240 µM (inactive),–,–,1960 µM (inactive),641 µM (inactive),450 µM (inactive),3030 µM (inactive),879 µM (inactive)
O=C1/C(=C/c2ccc(Br)cc2)CCC/C1=C\c1ccc(Br)cc1,4.3 µM (inactive),18.7 µM (inactive),5.05 µM (inactive),3.82 µM (inactive),13.2 µM (inactive),5.04 µM (inactive),3.57 µM (inactive),13.6 µM (inactive),21.8 µM (inactive)
CCCCNCCCNCCCNC(=O)c1csc(-c2csc(CCNC(=O)C(NC(=O)C(C)C(O)C(C)NC(=O)C(NC(=O)c3nc(C(CC(N)=O)NCC(N)C(N)=O)nc(N)c3C)C(OC3OC(CO)C(O)C(O)C3OC3OC(CO)C(O)C(OC(N)=O)C3O)c3c[nH]cn3)C(C)O)n2)n1 (configuration not stated),8.89 µM (inactive),> 73.3 µM (inactive),3.58 µM (inactive),40.6 µM (inactive),0.611 µM (active),20.9 µM (inactive),< 0.0458 µM (active),37.7 µM (inactive),–
CC1(C)O[C@H]2[C@H](O)C[C@](O)(CO)C[C@H]2O1,> 100 µM (inactive),> 100 µM (inactive),> 100 µM (inactive),> 100 µM (inactive),> 100 µM (inactive),> 100 µM (inactive),> 100 µM (inactive),–,–
